# Assay results as given in publication PMC11808726, “Identification of ABHD6 as a lysophosphatidylserine lipase in the mammalian liver and kidneys” (The Journal of Biological Chemistry, 2025).
# pIC50: −log10 of the molar value.
# Target: T1, ABHD6 (Mus musculus, UniProt Q8R2Y0)
# T1 construct: full-length mouse ABHD6, pcDNA3.1 myc-His, overexpressed in HEK293T (membrane fraction)
# T1 sequence (Q8R2Y0 1-336): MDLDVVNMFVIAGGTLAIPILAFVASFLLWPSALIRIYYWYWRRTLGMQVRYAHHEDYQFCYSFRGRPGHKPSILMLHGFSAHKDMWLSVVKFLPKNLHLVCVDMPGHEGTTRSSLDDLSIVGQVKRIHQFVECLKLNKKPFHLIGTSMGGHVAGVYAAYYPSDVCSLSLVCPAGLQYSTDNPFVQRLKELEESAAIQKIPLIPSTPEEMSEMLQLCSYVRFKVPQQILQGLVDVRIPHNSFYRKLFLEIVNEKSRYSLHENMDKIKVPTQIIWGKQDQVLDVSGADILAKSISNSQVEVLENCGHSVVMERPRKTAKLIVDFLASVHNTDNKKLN
# Test: competitive gel-based ABPP dose response with FP-rhodamine; lyso-PS lipase LC-MS assay; in vivo ABPP
# Type: biochemical
smiles,measurement,value
O=C(c1cccc(-c2ccc(-c3cn(C(=O)N4CCCCC4c4ccccc4)nn3)cc2)c1)N1CCCCC1 (stereo not shown) [KT185],pIC50,> 8.00
